Laboratory results from publication PMC8161735 (Toxicology, 2021).

Target: human ether-a-go-go-related gene (hERG) potassium channel (Homo sapiens, UniProt Q12809)
Assay: whole-cell patch clamp, hERG tail current in hERG-HEK-293 cells
Assay type: cell-based

Chain of human ether-a-go-go-related gene (hERG) potassium channel (Q12809 whole entry): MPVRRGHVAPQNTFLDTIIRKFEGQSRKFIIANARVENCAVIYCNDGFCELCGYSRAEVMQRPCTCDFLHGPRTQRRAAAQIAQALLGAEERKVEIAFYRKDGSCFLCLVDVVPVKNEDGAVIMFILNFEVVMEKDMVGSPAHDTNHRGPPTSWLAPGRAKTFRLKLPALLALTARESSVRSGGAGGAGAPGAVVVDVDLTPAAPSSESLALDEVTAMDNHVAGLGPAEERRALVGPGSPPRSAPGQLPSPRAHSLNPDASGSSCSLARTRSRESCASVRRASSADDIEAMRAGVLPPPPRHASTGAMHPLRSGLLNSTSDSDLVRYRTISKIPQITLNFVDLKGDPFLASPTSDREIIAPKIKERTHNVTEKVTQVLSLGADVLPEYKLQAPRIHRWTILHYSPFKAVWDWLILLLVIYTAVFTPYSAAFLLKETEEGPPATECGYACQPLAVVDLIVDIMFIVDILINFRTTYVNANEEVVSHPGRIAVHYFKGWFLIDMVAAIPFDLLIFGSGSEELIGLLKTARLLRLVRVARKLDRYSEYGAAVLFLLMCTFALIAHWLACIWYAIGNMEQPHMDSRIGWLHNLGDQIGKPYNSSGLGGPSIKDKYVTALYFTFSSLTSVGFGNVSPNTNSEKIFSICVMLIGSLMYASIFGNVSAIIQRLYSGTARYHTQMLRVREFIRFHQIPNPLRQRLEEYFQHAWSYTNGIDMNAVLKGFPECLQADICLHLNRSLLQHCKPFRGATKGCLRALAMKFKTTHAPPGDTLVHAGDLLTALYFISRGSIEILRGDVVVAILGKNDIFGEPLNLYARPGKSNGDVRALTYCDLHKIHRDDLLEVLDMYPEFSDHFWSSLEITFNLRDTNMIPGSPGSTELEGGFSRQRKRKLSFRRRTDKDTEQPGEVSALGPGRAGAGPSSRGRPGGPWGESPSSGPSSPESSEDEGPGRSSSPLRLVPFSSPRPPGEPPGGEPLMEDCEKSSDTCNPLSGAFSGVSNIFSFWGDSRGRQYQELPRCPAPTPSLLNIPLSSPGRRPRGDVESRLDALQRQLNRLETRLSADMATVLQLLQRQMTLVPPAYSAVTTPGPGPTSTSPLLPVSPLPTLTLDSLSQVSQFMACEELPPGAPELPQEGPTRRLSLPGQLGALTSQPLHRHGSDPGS

CCN(CCO)CCCC(C)Nc1ccnc2cc(Cl)ccc12 (stereo not shown) [HCQ, Hydroxychloroquine]
IC50: 8.6 µM
